Measurements: patent publication US20200407398A1, “Short Proline-Rich Lipopeptide Potentiates Minocycline and Rifampicin Against Multidrug-and Extensively Drug-Resistant Pseudomonas Aeruginosa” (priority 2018, published 2020)
Peptide text beside a SMILES is read from it. * marks the point of attachment. Acetyl(1-adamantyl) = O=C(CC12CC3CC(CC(C3)C1)C2)*; Octanoyl = CCCCCCCC(=O)*

Assays:
Format in all cases: cell-based
[1] = tested on: K. pneumoniae ATCC 13883
Protocol: (§1) The synthesized SPRLPs were evaluated for their antibacterial potency against a panel of Gram-positive and Gram-negative bacteria (Tables 2 & 3). Some of the included pathogens were collected from patients visiting or admitted to participating Canadian hospitals through the CAN-ICU (27) and CANWARD (28) national surveillance studies. Antibacterial activity was assessed using minimum inhibitory concentration (MIC) against various clinical pathogens.
(§2) Isolates used in this study were either obtained from the American Type Culture Collection (ATCC), the Canadian National Intensive Care Unit (CAN-ICU) surveillance study (27) or the Canadian Ward Surveillance (CANWARD) study (28). Clinical isolates belonging to the CAN-ICU and CANWARD studies were recovered from patients suffering a presumed infectious disease entering or admitted in a participating medical center across Canada during the time of study. MDR P. aeruginosa strains in this study refer to those that are resistant to aminoglycosides, fluoroquinolones, cephalosporins, and carbapenems while XDR strains are those that are resistant to aminoglycosides, fluoroquinolones, cephalosporins, carbapenems, aztreonam and penicillin+β-lactamase inhibitor combination (39, 40).
(§3) Microbroth dilution susceptibility test following the Clinical and Laboratory Standards Institute (CLSI) guidelines (32) was performed to assess the in vitro antibacterial activity of SPRLPs. Overnight grown bacterial cultures were diluted in saline to achieve a 0.5 McFarland turbidity, followed by 1:50 dilution in Mueller-Hinton broth (MHB) for inoculation to a final concentration of 5×10^5 colony forming units/mL. The assay was done on a 96-well plate to which the agents of interest were 2-fold serially diluted in MHB and incubated with equal volumes of inoculum at 37° C. for 18 hours. MIC was determined as the lowest concentration to inhibit visible bacterial growth in form of turbidity, which was confirmed using EMax Plus microplate reader (Molecular Devices, USA) at a wavelength of 590 nm. The well containing MHB broth with or without bacterial cells was used as positive or negative control, respectively.

[2] = tested on: E. coli CAN-ICU 63074 (amikacin-intermediate resistant)
Protocol: as §1, §2, §3

[3] = tested on: S. maltophilia CAN-ICU 62584
Protocol: as §1, §2, §3

[4] = tested on: methicillin-susceptible Staphylococcus epidermidis CANWARD-2008 81388; conditions: methicillin-susceptible CANWARD-2008 81388
Protocol: as §1, §2, §3

[5] = tested on: S. aureus ATCC 29213
Protocol: as §1, §2, §3

[6] = tested on: E. faecalis ATCC 29212
Protocol: as §1, §2, §3

[7] = tested on: E. coli ATCC 25922
Protocol: as §1, §2, §3

[8] = tested on: methicillin-resistant S. aureus ATCC 33592
Protocol: as §1, §2, §3

[9] = tested on: P. aeruginosa ATCC 27853
Protocol: as §1, §2, §3

[10] = tested on: P. aeruginosa wild-type PAO1
Protocol: as §1, §2, §3

[11] = tested on: A. baumannii CAN-ICU 63169
Protocol: as §1, §2, §3

[12] = tested on: P. aeruginosa CANWARD-2011 96846 (gentamicin-, tobramycin-resistant)
Protocol: as §1, §2, §3

[13] = tested on: E. coli CAN-ICU 61714 (gentamicin-resistant)
Protocol: as §1, §2, §3

[14] = tested on: methicillin-resistant S. epidermidis CAN-ICU 61589 (ceftazidime-resistant); conditions: methicillin-resistant CAN-ICU 61589 (ceftazidime-resistant)
Protocol: as §1, §2, §3

[15] = tested on: E. faecium ATCC 27270
Protocol: as §1, §2, §3

[16] = tested on: E. coli CANWARD-2011 97615 (gentamicin-, tobramycin-, ciprofloxacin-resistant) aac(3′)iia
Protocol: as §1, §2, §3

[17] = tested on: P. aeruginosa CAN-ICU 62308 (gentamicin-resistant)
Protocol: as §1, §2, §3

[18] = tested on: pig erythrocytes; conditions: red cells of porcine
Protocol: Since PRAMPs are able to kill bacteria through membrane lysis, it is imperative to evaluate whether these synthesized SPRLPs also lyse eukaryotic membranes. The ability to lyse porcine red blood cells was assessed and the minimum concentration to result in 5% erythrocyte hemolysis (MHC) was reported (Tables 2 & 3). […] This greatly limits their therapeutic potential. […] However, all other SPRLPs were non-hemolytic (MHC>512 μg/mL).
The ability of SPRLPs to lyse eukaryotic red blood cells were quantified by the amount of hemoglobin released upon incubation with pig erythrocytes, following published protocols (37, 39). Fresh pig blood drawn from pig antecubital vein was centrifuged at 1000×g for 5 minutes at 4° C., washed with PBS three times and re-suspended in the same buffer, consecutively. Then, agents of interest were 2-fold serially diluted in PBS on 96-well plate and mixed with equal volumes of erythrocyte solution. Post 1-hour incubation at 37° C., intact cells were pelleted by centrifugation at 1000×g for 5 minutes at 4° C. The supernatant was then transferred to a new 96-well plate. The hemoglobin released was measured via EMax Plus microplate reader (Molecular Devices, USA) at 570 nm wavelength. Erythrocytes in PBS with or without 0.1% Triton X-100 was used as negative or positive control, respectively.

SMILES	MIC [1] [µg/mL]	MIC [2] [µg/mL]	MIC [3] [µg/mL]	MIC [4] [µg/mL]	MIC [5] [µg/mL]	MIC [6] [µg/mL]	MIC [7] [µg/mL]	MIC [8] [µg/mL]	MIC [9] [µg/mL]	MIC [10] [µg/mL]	MIC [11] [µg/mL]	MIC [12] [µg/mL]	MIC [13] [µg/mL]	MIC [14] [µg/mL]	MIC [15] [µg/mL]	MIC [16] [µg/mL]	MIC [17] [µg/mL]	MHC (minimum concentration that resulted in 5% red blood cell hemolysis) [18] [µg/mL]
N=C(N)NCCC[C@H](NC(=O)[C@@H]1CCCN1C(=O)CNC(=O)[C@@H]1CCCN1C(=O)[C@H](CCCNC(=N)N)NC(=O)[C@@H]1CCCN1C(=O)CC12CC3CC(CC(C3)C1)C2)C(=O)N1CCC[C@H]1C(N)=O [Ad-PGP, Adamantyl-CH2CO-PRPGPRP-NH2] ({Acetyl(1-adamantyl)}-PRPGPRP-NH2)	>128	>128	>128	>128	>128	>128	>128	>128	>128	>512	>128	>128	>128	>128	>128	>128	>128	>512
CC(C)C[C@H](NC(=O)[C@@H]1CCCN1C(=O)[C@H](CCCNC(=N)N)NC(=O)[C@@H]1CCCN1C(=O)CC12CC3CC(CC(C3)C1)C2)C(=O)N1CCC[C@H]1C(=O)N[C@@H](CCCNC(=N)N)C(=O)N1CCC[C@H]1C(N)=O [Ad-PLP, Adamantyl-CH2CO-PRPLPRP-NH2] ({Acetyl(1-adamantyl)}-PRPLPRP-NH2)	>128	>128	>128	>128	>128	>128	>128	>128	>128	>512	>128	>128	>128	>128	>128	>128	>128	>512
N=C(N)NCCC[C@H](NC(=O)[C@@H]1CCCN1C(=O)[C@H](Cc1c[nH]c2ccccc12)NC(=O)[C@@H]1CCCN1C(=O)[C@H](CCCNC(=N)N)NC(=O)[C@@H]1CCCN1C(=O)CC12CC3CC(CC(C3)C1)C2)C(=O)N1CCC[C@H]1C(N)=O [Ad-PWP, Adamantyl-CH2CO-PRPWPRP-NH2] ({Acetyl(1-adamantyl)}-PRPWPRP-NH2)	>128	>128	>128	>128	>128	>128	>128	>128	>128	>512	>128	>128	>128	>128	>128	>128	>128	>512
CCCCCCCC(=O)N1CCC[C@H]1C(=O)N[C@@H](CCCNC(=N)N)C(=O)N1CCC[C@H]1C(=O)NCC(=O)N1CCC[C@H]1C(=O)N[C@@H](CCCNC(=N)N)C(=O)N1CCC[C@H]1C(N)=O [Compound C8-PGP, CH3(CH2)6CO-PRPGPRP-NH2] (Octanoyl-PRPGPRP-NH2)	>128	>128	>128	>128	>128	>128	>128	>128	>128	>512	>128	>128	>128	>128	>128	>128	>128	>512
CCCCCCCC(=O)N1CCC[C@H]1C(=O)N[C@@H](CCCNC(=N)N)C(=O)N1CCC[C@H]1C(=O)N[C@@H](CC(C)C)C(=O)N1CCC[C@H]1C(=O)N[C@@H](CCCNC(=N)N)C(=O)N1CCC[C@H]1C(N)=O [Compound C8-PLP, CH3(CH2)6CO-PRPLPRP-NH2] (Octanoyl-PRPLPRP-NH2)	>128	>128	>128	>128	>128	>128	>128	>128	>128	>512	>128	>128	>128	>128	>128	>128	>128	>512
CCCCCCCC(=O)N1CCC[C@H]1C(=O)N[C@@H](CCCNC(=N)N)C(=O)N1CCC[C@H]1C(=O)N[C@@H](Cc1c[nH]c2ccccc12)C(=O)N1CCC[C@H]1C(=O)N[C@@H](CCCNC(=N)N)C(=O)N1CCC[C@H]1C(N)=O [Compound C8-PWP, CH3(CH2)6CO-PRPWPRP-NH2] (Octanoyl-PRPWPRP-NH2)	>128	>128	>128	>128	>128	>128	>128	>128	>128	>512	>128	>128	>128	>128	>128	>128	>128	>512
